Reference: US9637496B2, “Substituted 7-azabicycles and their use as orexin receptor modulators” (priority 2013, dated 2017)
Read-outs that look alike come from different tables or passages of the source.

Tests used:
human orexin 2 receptor = human orexin 2 receptor (Homo sapiens (Human), UniProt O43614); test: Human orexin 2 receptor radioligand binding ([3H]-EMPA competition, HEK293 membranes)
human orexin 1 receptor = human orexin 1 receptor (Homo sapiens (Human), UniProt O43613); test: Human orexin 1 receptor radioligand binding (competitive binding, CHO membranes)
Chain of human orexin 1 receptor (O43613 whole entry): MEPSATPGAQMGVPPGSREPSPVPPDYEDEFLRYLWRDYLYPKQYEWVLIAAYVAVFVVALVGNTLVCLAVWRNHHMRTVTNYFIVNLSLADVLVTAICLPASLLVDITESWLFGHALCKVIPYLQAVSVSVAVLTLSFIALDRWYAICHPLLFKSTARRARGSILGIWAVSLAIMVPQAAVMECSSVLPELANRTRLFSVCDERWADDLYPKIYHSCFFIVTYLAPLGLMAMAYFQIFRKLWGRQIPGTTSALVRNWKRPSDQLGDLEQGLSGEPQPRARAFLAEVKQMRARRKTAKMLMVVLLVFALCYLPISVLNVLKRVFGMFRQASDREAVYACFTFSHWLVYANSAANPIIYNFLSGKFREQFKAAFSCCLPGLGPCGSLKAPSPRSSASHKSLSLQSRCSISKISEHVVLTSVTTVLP

rat orexin 1 receptor = rat orexin 1 receptor (Rattus norvegicus (Rat), UniProt P56718); test: Rat orexin 1 receptor radioligand binding (competitive binding, HEK293 membranes)
Chain of rat orexin 1 receptor (P56718 whole entry): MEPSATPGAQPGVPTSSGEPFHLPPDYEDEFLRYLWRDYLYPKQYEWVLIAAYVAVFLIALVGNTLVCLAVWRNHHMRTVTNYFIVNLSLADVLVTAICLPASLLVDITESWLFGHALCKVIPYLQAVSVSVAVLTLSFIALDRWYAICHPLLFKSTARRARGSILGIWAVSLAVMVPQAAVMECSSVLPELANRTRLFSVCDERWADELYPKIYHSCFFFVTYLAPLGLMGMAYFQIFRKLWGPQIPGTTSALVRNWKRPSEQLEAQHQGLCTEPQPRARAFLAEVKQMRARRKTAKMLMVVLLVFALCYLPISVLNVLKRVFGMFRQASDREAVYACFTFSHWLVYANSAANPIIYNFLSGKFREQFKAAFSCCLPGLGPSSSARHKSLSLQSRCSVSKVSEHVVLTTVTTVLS

[1] = human orexin 1 receptor, Table 2, averages of 2-20 runs, read-out: hOX1 Ki
[2] = human orexin 2 receptor, Table 2, averages of 2-20 runs, read-out: hOX2 Ki
[3] = rat orexin 1 receptor, Table 2, averages from between 2-20 runs, read-out: rOX1 Ki
[4] = human orexin 2 receptor, Table 2, averages from between 2-20 runs, read-out: hOX2 Ki
[5] = Table 2, further testing, averages from 2-20 runs, read-out: rOX1 Ki
[6] = Table 2, further testing, averages from 2-20 runs, read-out: hOX2 Ki

Chain of human orexin 2 receptor (O43614 whole entry): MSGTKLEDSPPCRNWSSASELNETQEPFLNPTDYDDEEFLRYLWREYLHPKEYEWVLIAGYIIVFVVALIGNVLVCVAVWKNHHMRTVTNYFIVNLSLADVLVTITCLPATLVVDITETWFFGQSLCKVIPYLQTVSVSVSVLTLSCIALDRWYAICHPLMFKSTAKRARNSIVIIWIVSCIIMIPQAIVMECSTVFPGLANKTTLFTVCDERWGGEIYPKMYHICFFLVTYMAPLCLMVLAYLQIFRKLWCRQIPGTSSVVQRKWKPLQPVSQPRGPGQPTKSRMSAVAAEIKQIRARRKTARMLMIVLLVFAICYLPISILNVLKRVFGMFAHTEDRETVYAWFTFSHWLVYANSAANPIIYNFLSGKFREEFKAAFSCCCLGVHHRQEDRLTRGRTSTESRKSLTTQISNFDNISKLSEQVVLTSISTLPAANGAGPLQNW

Row | Structure (SMILES) | Ki (rat orexin 1 receptor; [3]) [nM] | Ki (human orexin 2 receptor; [4]) [nM] | further results
1 | O=C(c1ccccc1-c1cccs1)N1C2CCC1C(COc1ccc(F)cn1)C2 (racemic) [Example 11, (±)-(2-(((5-fluoropyridin-2-yl)oxy)methyl)-7-azabicyclo[2.2.1]heptan-7-yl)(2-(thiophen-2-yl)phenyl)methanone] | – | – | Ki (human orexin 2 receptor): 13 nM
2 | O=C(c1ccccc1-n1cccn1)N1C2CCC1C(COc1ccc(F)cn1)C2 (racemic) [Example 26, (±)-2-(1H-pyrazol-1-yl)phenyl)(2-(((5-fluoropyridin-2-yl)oxy)methyl)-7-azabicyclo[2.2.1]heptan-7-yl)methanone] | – | – | Ki (human orexin 1 receptor; [1]): 134 nM
3 | O=C(c1c(F)cccc1-c1ncccn1)N1C2CCC1C(COc1ccc(F)cn1)C2 (racemic) [Example 31, (±)-(2-fluoro-6-(pyrimidin-2-yl)phenyl)(2-(((5-fluoropyridin-2-yl)oxy)methyl)-7-azabicyclo[2.2.1]heptan-7-yl)methanone] | – | – | Ki (human orexin 1 receptor): 43 nM
4 | O=C(c1cc(F)ccc1-c1ncccn1)N1C2CCC1C(COc1ccc(F)cn1)C2 (racemic) [Example 32, (4)-(5-fluoro-2-(pyrimidin-2-yl)phenyl)(2-(((5-fluoropyridin-2-yl)oxy)methyl)-7-azabicyclo[2.2.1]heptan-7-yl)methanone] | – | – | Ki (human orexin 2 receptor; [2]): 130 nM
5 | Cc1cc(C)nc(OCC2CC3CCC2N3C(=O)c2ccccc2-c2cccs2)n1 (racemic) [Example 46, (±)-(2-(((4,6-dimethylpyrimidin-2-yl)oxy)methyl)-7-azabicyclo[2.2.1]heptan-7-yl)(2-(thiophen-2-yl)phenyl)methanone] | – | – | Ki (human orexin 1 receptor; [1]): 111 nM
6 | CCOc1ncc2ccccc2c1C(=O)N1C2CCC1C(COc1ccccn1)C2 (racemic) [Example 83, (±)-(3-ethoxyisoquinolin-4-yl)(2-((pyridin-2-yloxy)methyl)-7-azabicyclo[2.2.1]heptan-7-yl)methanone] | – | – | Ki (human orexin 1 receptor): 13 nM
7 | O=C(c1cccc(F)c1-c1ncccn1)N1C2CCC1C(COc1ccc(F)cn1)C2 (racemic) [Example 124, (±)-(3-fluoro-2-(pyrimidin-2-yl)phenyl)(-2-(((5-fluoropyridin-2-yl)oxy)methyl)-7-azabicyclo[2.2.1]heptan-7-yl)methanone] | – | – | Ki (human orexin 1 receptor): 75 nM
8 | O=C(c1cccc(F)c1-n1nccn1)N1C2CCC1C(COc1nccc(C(F)(F)F)n1)C2 (racemic) [Example 134, (±)-(3-fluoro-2-(2H-1,2,3-triazol-2-yl)phenyl)(2-(((4-(trifluoromethyl)pyrimidin-2-yl)oxy)methyl)-7-azabicyclo[2.2.1]heptan-7-yl)methanone] | – | – | Ki (rat orexin 1 receptor): 1500 nM; Ki (human orexin 1 receptor): 690 nM
9 | COc1c(F)cccc1C(=O)N1C2CCC1C(Nc1ccc(F)cn1)C2 (racemic) [Example 237, (±)-(3-fluoro-2-methoxyphenyl)(2-((5-fluoropyridin-2-yl)amino)-7-azabicyclo[2.2.1]heptan-7-yl)methanone] | > 1000 | – | –
10 | O=C(c1cccc(F)c1-n1ccnn1)N1C2CCC1C(Oc1ccc(C(F)(F)F)cn1)C2 (racemic) [Example 424] | 2700 | > 10000 | –
11 | O=C(c1c(F)cccc1-n1nccn1)N1C2CCC1C(Oc1ccc(C(F)(F)F)cn1)C2 (racemic) [Example 425] | 587 | – | Ki (human orexin 2 receptor): 5100 nM
12 | O=C(c1cccnc1-n1nccn1)N1C2CCC1C(Oc1ccc(C(F)(F)F)cn1)C2 (racemic) [Example 426] | – | – | Ki (rat orexin 1 receptor): 5400 nM; Ki (human orexin 2 receptor): > 10000 nM
13 | Cc1ccc(C(=O)N2C3CCC2C(Oc2ccc(C(F)(F)F)cn2)C3)c(-n2nccn2)n1 (racemic) [Example 427] | – | > 10000 | Ki (rat orexin 1 receptor): 560 nM
14 | Cc1cnc(-n2nccn2)c(C(=O)N2C3CCC2C(Oc2ccc(C(F)(F)F)cn2)C3)c1 (racemic) [Example 428] | – | > 10000 | Ki (rat orexin 1 receptor): 1100 nM
15 | Cc1cccc(C(=O)N2C3CCC2C(Oc2ccc(C(F)(F)F)nc2)C3)c1-n1nccn1 (racemic) [Example 437] | – | > 10000 | Ki (rat orexin 1 receptor): > 10000 nM
16 | O=C(c1cccc(F)c1-n1nccn1)N1C2CCC1C(Oc1ccc(C(F)(F)F)nc1)C2 (racemic) [Example 438] | > 10000 | > 10000 | –
17 | O=C(c1c(F)cccc1-n1nccn1)N1C2CCC1C(Oc1ccc(C(F)(F)F)nc1)C2 (racemic) [Example 439] | > 10000 | > 10000 | –

Row | Structure (SMILES) | Ki (rat orexin 1 receptor; [3]) [nM] | Ki (human orexin 2 receptor; [4]) [nM] | further results
18 | O=C(c1cccc(F)c1-n1nccn1)N1C2CCC1C(Oc1ncc(Br)cn1)C2 (racemic) [Example 441] | – | > 10000 | Ki (rat orexin 1 receptor): 1500 nM
19 | O=C(c1cccc(F)c1-n1nccn1)N1C2CCC1C(Oc1cnc3ccccc3n1)C2 (racemic) [Example 442] | 349 | 1900 | –
20 | O=C(c1cccc(F)c1-n1nccn1)N1C2CCC1C(Oc1cc(Br)cnc1Cl)C2 (racemic) [Example 443] | > 10000 | > 10000 | –
21 | O=C(c1cccc(F)c1-n1nccn1)N1C2CCC1C(Oc1cnc(C(F)(F)F)cn1)C2 (racemic) [Example 445, (R/S)-(3-fluoro-2-(2H-1,2,3-triazol-2-yl)phenyl)(2-((5-(trifluoromethyl)pyrazin-2-yl)oxy)-7-azabicyclo[2.2.1]heptan-7-yl)methanone] | – | – | Ki (rat orexin 1 receptor; [5]): 460 nM; Ki (human orexin 2 receptor; [6]): > 10000 nM
22 | Cc1ccc(C(=O)N2C3CCC2C(Oc2cnc(C(F)(F)F)cn2)C3)c(-n2nccn2)n1 (racemic) [Example 446, (R/S)-(6-methyl-2-(2H-1,2,3-triazol-2-yl)pyridin-3-yl)(2-((5-(trifluoromethyl)pyrazin-2-yl)oxy)-7-azabicyclo[2.2.1]heptan-7-yl)methanone] | – | – | Ki (rat orexin 1 receptor; [5]): 4700 nM; Ki (human orexin 2 receptor; [6]): > 10000 nM
23 | O=C(c1cccc(F)c1-c1ncccn1)N1C2CCC1C(Oc1cnc(C(F)(F)F)cn1)C2 (racemic) [Example 447, (R/S)-(3-fluoro-2-(pyrimidin-2-yl)phenyl)(2-((5-(trifluoromethyl)pyrazin-2-yl)oxy)-7-azabicyclo[2.2.1]heptan-7-yl)methanone] | – | – | Ki (rat orexin 1 receptor; [5]): 293 nM; Ki (human orexin 2 receptor; [6]): > 10000 nM
24 | Cc1coc(-c2ccc(C)nc2C(=O)N2[C@@H]3CC[C@H]2[C@H](COc2ncc(F)cn2)C3)n1 [Example 179, ((1S,2R,4R)-2-(((5-fluoropyrimidin-2-yl)oxy)methyl)-7-azabicyclo[2.2.1]heptan-7-yl)(6-methyl-3-(4-methyloxazol-2-yl)pyridin-2-yl)methanone] | – | – | Ki (rat orexin 1 receptor; rat orexin 1 receptor, Table 2, averages of 2-20 runs, read-out: rOX1 Ki): 2400 nM; Ki (human orexin 2 receptor; [2]): 5400 nM
25 | Cc1cccc(C(=O)N2[C@@H]3CC[C@H]2[C@H](Nc2cnc(C(F)(F)F)cn2)C3)c1-c1ncco1 [Example 266, (3-methyl-2-(oxazol-2-yl)phenyl)((1S,2R,4R)-2-((5-(trifluoromethyl)pyrazin-2-yl)amino)-7-azabicyclo[2.2.1]heptan-7-yl)methanone] | 6 | – | –
26 | O=C(c1cccc(F)c1-c1ncccn1)N1[C@H]2CC[C@@H]1[C@@H](Nc1cnc(C(F)(F)F)cn1)C2 [Example 297, (3-fluoro-2-(pyrimidin-2-yl)phenyl)((1R,2S,4S)-2-((5-(trifluoromethyl)pyrazin-2-yl)amino)-7-azabicyclo[2.2.1]heptan-7-yl)methanone] | – | – | Ki (rat orexin 1 receptor): 402 nM; Ki (human orexin 1 receptor; human orexin 1 receptor, Table 2, averages from between 2-20 runs, read-out: hOX1 Ki): > 10000 nM
27 | Cc1cnc(-c2ncccn2)c(C(=O)N2[C@@H]3CC[C@H]2[C@H](Nc2ccc(C(F)(F)F)cn2)C3)c1 [Example 378, (5-methyl-2-(pyrimidin-2-yl)pyridin-3-yl)((1S,2R,4R)-2-((5-(trifluoromethyl)pyridin-2-yl)amino)-7-azabicyclo[2.2.1]heptan-7-yl)methanone] | 310 | > 10000 | –
28 | O=C(c1cccnc1-n1nccn1)N1[C@@H]2CC[C@H]1[C@H](Nc1cnc(C(F)(F)F)cn1)C2 [Example 402, (2-(2H-1,2,3-triazol-2-yl)pyridin-3-yl)((1S,2R,4R)-2-((5-(trifluoromethyl)pyrazin-2-yl)amino)-7-azabicyclo[2.2.1]heptan-7-yl)methanone] | 575 | > 10000 | –
29 | Cc1cnc(-c2ncccn2)c(C(=O)N2[C@@H]3CC[C@H]2[C@H](Nc2cnc(C(F)(F)F)cn2)C3)c1 [Example 404, (5-methyl-2-(pyrimidin-2-yl)pyridin-3-yl)((1S,2R,4R)-2-((5-(trifluoromethyl)pyrazin-2-yl)amino)-7-azabicyclo[2.2.1]heptan-7-yl)methanone] | 419 | > 10000 | –
30 | COc1ccc(C(=O)N2[C@@H]3CC[C@H]2[C@H](Nc2cnc(C(F)(F)F)cn2)C3)c(Cl)n1 [Example 413, (2-chloro-6-methoxypyridin-3-yl)((1S,2R,4R)-2-((5-(trifluoromethyl)pyrazin-2-yl)amino)-7-azabicyclo[2.2.1]heptan-7-yl)methanone] | > 10000 | > 10000 | –
31 | O=C(c1cccc(F)c1-c1ncccn1)N1[C@@H]2CC[C@H]1[C@H](Nc1nc(C(F)(F)F)cs1)C2 [Example 418, (3-fluoro-2-(pyrimidin-2-yl)phenyl)((1S,2R,4R)-2-((4-(trifluoromethyl)thiazol-2-yl)amino)-7-azabicyclo[2.2.1]heptan-7-yl)methanone] | 459 | 2500 | –
32 | O=C(c1cccc(F)c1-c1ncccn1)N1[C@@H]2CC[C@H]1[C@H](Nc1nnc(C(F)(F)F)s1)C2 [Example 419, (3-fluoro-2-(pyrimidin-2-yl)phenyl)((1S,2R,4R)-2-((5-(trifluoromethyl)-1,3,4-thiadiazol-2-yl)amino)-7-azabicyclo[2.2.1]heptan-7-yl)methanone] | 853 | 7400 | –
33 | Cc1cnc(-c2ncccn2)c(C(=O)N2[C@@H]3CC[C@H]2[C@H](Nc2ncc(C(F)(F)F)cc2F)C3)c1 [Example 455, ((1S,2R,4R)-2-((3-fluoro-5-(trifluoromethyl)pyridin-2-yl)amino)-7-azabicyclo[2.2.1]heptan-7-yl)(5-methyl-2-(pyrimidin-2-yl)pyridin-3-yl)methanone] | – | – | Ki (rat orexin 1 receptor; [5]): 464 nM; Ki (human orexin 2 receptor; [6]): > 10000 nM
